Assay results published in patent US12581252B2, “Substituted pyrrolo[3,4-b]pyridines as PI3K-α inhibitors” (Relay Therapeutics, Inc., priority 2020, dated 2026).

Biological target: H1047R PIK3CA enzyme (Homo sapiens, UniProt P42336, H1047R)
Experiment: ADP-Glo Biochemical PIK3CA Kinase Assay
Protocol: Compounds to be assayed were plated in 16 doses of 1:2 serial dilutions (20 nL volume each well) on a 1536-well plate, and the plate warmed to room temperature. […] To the well was added 1 μL of 200 μM ATP and 20 μM of diC8-PIP2 in Substrate Assay Buffer (50 mM HEPES pH7.4, 50 mM NaCl, 5 mM DTT and 0.03% CHAPS) to start the reaction, and the plate was shaken for 10 seconds, then spun briefly at 1500 rpm, and then incubated for 60 minutes at room temperature. The reaction was stopped by adding 2 μL of ADP-Glo reagent (Promega), and spinning briefly at 1500 rpm, and then incubating for 40 minutes. ADP-Glo Detection reagent (Promega) was added and the plate spun briefly at 1500 rpm, then incubated for 30 minutes.

Sequence of H1047R PIK3CA enzyme (P42336 whole entry H1047R): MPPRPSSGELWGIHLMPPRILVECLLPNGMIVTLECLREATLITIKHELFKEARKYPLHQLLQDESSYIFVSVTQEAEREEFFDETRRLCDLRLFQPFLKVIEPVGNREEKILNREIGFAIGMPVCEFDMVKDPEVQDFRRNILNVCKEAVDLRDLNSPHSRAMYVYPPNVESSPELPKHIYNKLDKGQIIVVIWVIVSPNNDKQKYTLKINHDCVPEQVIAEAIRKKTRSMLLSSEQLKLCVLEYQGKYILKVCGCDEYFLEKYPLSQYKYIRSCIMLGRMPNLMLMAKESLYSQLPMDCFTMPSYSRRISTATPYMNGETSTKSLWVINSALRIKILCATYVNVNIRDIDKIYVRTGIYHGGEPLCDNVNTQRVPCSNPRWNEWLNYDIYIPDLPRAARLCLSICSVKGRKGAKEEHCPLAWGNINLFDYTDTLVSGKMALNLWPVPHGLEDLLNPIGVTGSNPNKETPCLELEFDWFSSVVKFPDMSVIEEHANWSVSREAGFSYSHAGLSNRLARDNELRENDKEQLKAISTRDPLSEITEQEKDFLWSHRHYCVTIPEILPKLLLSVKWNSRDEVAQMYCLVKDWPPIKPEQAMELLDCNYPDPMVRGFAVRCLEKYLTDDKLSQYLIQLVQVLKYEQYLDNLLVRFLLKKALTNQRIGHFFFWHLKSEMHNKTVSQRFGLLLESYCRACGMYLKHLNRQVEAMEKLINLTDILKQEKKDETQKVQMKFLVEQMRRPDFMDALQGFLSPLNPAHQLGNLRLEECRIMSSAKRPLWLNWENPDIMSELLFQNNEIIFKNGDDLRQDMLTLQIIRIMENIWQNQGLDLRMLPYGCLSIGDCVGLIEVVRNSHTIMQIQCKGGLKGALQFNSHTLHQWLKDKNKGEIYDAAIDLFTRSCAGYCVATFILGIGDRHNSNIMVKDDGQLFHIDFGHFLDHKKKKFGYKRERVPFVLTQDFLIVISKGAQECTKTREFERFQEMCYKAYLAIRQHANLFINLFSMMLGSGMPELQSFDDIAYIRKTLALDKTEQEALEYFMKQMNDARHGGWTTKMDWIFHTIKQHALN
Sequence of H1047R PIK3CA enzyme (P27986 whole entry partner): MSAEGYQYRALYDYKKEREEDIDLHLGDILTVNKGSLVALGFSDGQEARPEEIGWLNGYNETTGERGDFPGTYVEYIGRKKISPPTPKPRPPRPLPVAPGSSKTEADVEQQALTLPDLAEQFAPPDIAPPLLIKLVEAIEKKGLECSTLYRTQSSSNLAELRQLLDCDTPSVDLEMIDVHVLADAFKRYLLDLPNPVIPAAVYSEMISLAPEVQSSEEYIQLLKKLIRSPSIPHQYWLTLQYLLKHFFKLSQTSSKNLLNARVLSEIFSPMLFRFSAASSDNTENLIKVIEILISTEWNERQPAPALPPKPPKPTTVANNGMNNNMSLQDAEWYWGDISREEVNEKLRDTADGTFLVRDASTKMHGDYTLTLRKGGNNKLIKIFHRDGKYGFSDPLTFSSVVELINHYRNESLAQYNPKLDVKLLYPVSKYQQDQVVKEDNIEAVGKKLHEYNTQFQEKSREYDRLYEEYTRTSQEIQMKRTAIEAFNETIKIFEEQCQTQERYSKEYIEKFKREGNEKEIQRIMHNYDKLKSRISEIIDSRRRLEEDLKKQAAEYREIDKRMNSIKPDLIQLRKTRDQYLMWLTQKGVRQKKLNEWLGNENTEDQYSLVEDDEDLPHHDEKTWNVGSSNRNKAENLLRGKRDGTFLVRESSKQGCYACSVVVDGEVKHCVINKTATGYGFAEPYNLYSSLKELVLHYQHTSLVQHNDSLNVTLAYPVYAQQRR

Row | Compound | IC50 [µM]
1 | O=C1NC(c2cc(F)ccc2Cl)c2c(NC(=O)[C@@H]3CC[C@H](O)C3)cc(Br)cc21 (single isomer, unassigned) [Compound I-1975] | 10 to 100
2 | O=C1N[C@@H](c2cc(F)ccc2Cl)c2c(NC(=O)[C@@H]3CC[C@H](O)C3)cc(Br)cc21 (single isomer, unassigned) [Compound I-2104] | 10 to 100
3 | N#Cc1cc2ncnn2cc1-c1cc(NC(=O)c2cc(F)cc(C(F)(F)F)c2)c2c(c1)C(=O)NC2c1cc(F)ccc1Cl (stereo not drawn) [Compound I-1539] | ≤ 0.1
4 | CN1CCN(Cc2cc(NC(=O)c3cc(F)cc(C(F)(F)F)c3)c3c(c2)C(=O)NC3c2cc(F)ccc2Cl)CC1=O (stereo not drawn) [Compound I-1235] | 0.1 to 0.5
5 | O=C1NC(c2cc(F)ccc2Cl)c2c(Nc3nn(C4CC4)c4ccccc34)cc(-c3ccc4ncnn4c3)cc21 (stereo not drawn) [Compound I-1809] | 1 to 10
6 | O=C(Nc1cc(CS(=O)(=O)Nc2cccnc2)cc2c1C(c1cc(F)ccc1Cl)NC2=O)c1cc(F)cc(C(F)(F)F)c1 (stereo not drawn) [Compound I-1402] | ≤ 0.1
7 | O=C(Nc1cc(-c2cnc3ncnn3c2)cc2c1[C@@H](c1cc(F)ccc1Cl)NC2=O)c1cc(F)cc(C(F)(F)F)c1 [Compound I-1023] | 0.5 to 1
8 | O=C(CC1CC(F)(F)C1(F)F)Nc1cc(Br)cc2c1C(c1cc(F)ccc1Cl)NC2=O (stereo not drawn) [Compound I-1633] | 1 to 10
9 | CN(C)S(=O)(=O)n1nccc1-c1cc(NC(=O)c2cc(F)cc(C(F)(F)F)c2)c2c(c1)C(=O)NC2c1cc(F)ccc1Cl (stereo not drawn) [Compound I-1439] | ≤ 0.1
10 | CC(O)c1cc(NC(=O)c2cc(F)cc(C(F)(F)F)c2)c2c(n1)C(=O)NC2c1cc(F)ccc1Cl (stereo not drawn) [Compound I-280] | 0.1 to 0.5
11 | O=C1NC(c2cc(F)ccc2Cl)c2c1cc(-c1cnn(C(F)F)c1)cc2-c1cn2ccc(C(F)(F)F)cc2n1 (stereo not drawn) [Compound I-2135] | 1 to 10
12 | O=C1N[C@H](c2cc(F)ccc2Cl)c2c(NC(=O)N3C[C@@](O)(C(F)(F)F)c4cc(F)ccc43)cc(F)cc21 (single isomer, unassigned) [Compound I-2629] | 1 to 10
13 | O=C(Nc1cccc2c1C(C1CCCCC1O)NC2=O)c1cc(F)cc(C(F)(F)F)c1 (stereo not drawn) [Compound I-1820] | 10 to 100
14 | O=C1N[C@H](c2cc(F)ccc2Cl)c2c(NC(=O)[C@H]3CCC[C@@H](OC(F)(F)F)C3)cccc21 (single isomer, unassigned) [Compound I-2217] | 10 to 100
15 | O=C1C[C@@H](c2cc(NC(=O)c3cc(F)cc(C(F)(F)F)c3)c3c(c2)C(=O)N[C@H]3c2cc(F)ccc2Cl)CN1 (single isomer, unassigned) [Compound I-1710] | ≤ 0.1
16 | O=C(Nc1cc(-c2cnc(C(O)CO)nc2)cc2c1C(c1cc(F)ccc1Cl)NC2=O)c1cc(F)cc(C(F)(F)F)c1 (stereo not drawn) [Compound I-1542] | ≤ 0.1
17 | O=C(Nc1cnc(N2CC(F)(F)C2)c2c1C(Cl)(c1cc(F)ccc1Cl)NC2=O)c1cc(F)cc(C(F)(F)F)c1 (stereo not drawn) [Compound I-274, N-(1-Chloro-1-(2-chloro-5-fluorophenyl)-4-(3,3-difluoroazetidin-1-yl)-3-oxo-2,3-dihydro-1H-pyrrolo[3,4-c]pyridin-7-yl)-3-fluoro-5-(trifluoromethyl)benzamide] | 1 to 10
18 | N#Cc1cc2nccn2cc1-c1cc(NC(=O)c2cc(F)cc(C(F)(F)F)c2)c2c(c1)C(=O)NC2c1cc(F)ccc1Cl (stereo not drawn) [Compound I-1437] | ≤ 0.1
19 | NC1CCCCC1C(=O)Nc1cc(-c2ccc3ncnn3c2)cc2c1C(c1cc(F)ccc1Cl)NC2=O (stereo not drawn) [Compound I-1982] | 10 to 100
20 | O=C1NC(c2cc(F)ccc2Cl)c2c(NC(=O)c3cc(F)cc4ccc(=O)[nH]c34)cc(Br)cc21 (stereo not drawn) [Compound I-1424] | 1 to 10
21 | O=C(Nc1cccc2c1C(C13CC4CC(CC(C4)C1)C3)NC2=O)c1cc(F)cc(C(F)(F)F)c1 (stereo not drawn) [Compound I-1969] | 10 to 100
22 | O=C1NC(c2cc(F)ccc2Cl)c2c(Nc3ccncc3)cc(Br)cc21 (stereo not drawn) [Compound I-2025] | 10 to 100
23 | O=C1NC(c2cc(F)ccc2Cl)c2c1cc(-c1ccc3ncnn3c1)cc2N1CCn2cc(C(F)(F)F)nc2C1 (stereo not drawn) [Compound I-2039] | 10 to 100
24 | O=C(Nc1cc(CS(=O)(=O)Cc2ccncc2)cc2c1C(c1cc(F)ccc1Cl)NC2=O)c1cc(F)cc(C(F)(F)F)c1 (stereo not drawn) [Compound I-1470] | ≤ 0.1
25 | O=C1NC(c2cc(F)ccc2Cl)c2c(NC(=O)N3CCCC3)cc(-c3ccc4ncnn4c3)cc21 (stereo not drawn) [Compound I-1720] | 10 to 100
26 | O=C(Nc1cc(-c2ccc3c(c2)OC(F)(F)O3)cc2c1C(c1cc(F)ccc1Cl)NC2=O)c1cc(F)cc(C(F)(F)F)c1 (stereo not drawn) [Compound I-738] | 0.1 to 0.5

Second part, the compound after the results:

Row | IC50 [µM] | Compound
27 | 10 to 100 | O=C1NC(c2cc(F)ccc2Cl)c2c(Nc3noc4ccccc34)cc(Br)cc21 (stereo not drawn) [Compound I-1058]
28 | 1 to 10 | Cc1c(F)cccc1[C@H]1NC(=O)c2cc(Br)cc(NC(=O)c3cc(F)cc(C(F)(F)F)c3)c21 [Compound I-749]
29 | ≤ 0.1 | O=C(Nc1cc(-c2ccc3nnc(C(F)F)n3c2)cc2c1[C@H](c1cc(F)ccc1Cl)NC2=O)c1cc(F)cc(C(F)(F)F)c1 [Compound I-1925]
30 | 1 to 10 | C[C@H](C#N)n1cc(-c2cc(NC(=O)c3cc(F)cc(C(F)(F)F)c3)c3c(c2)C(=O)N[C@@H]3c2cc(F)ccc2Cl)cn1 (single isomer, unassigned) [Compound I-1915]
31 | 1 to 10 | O=C(Nc1cc(CS(=O)(=O)c2ccccc2)cc2c1[C@@H](c1cc(F)ccc1Cl)NC2=O)c1cc(F)cc(C(F)(F)F)c1 [Compound I-1593]
32 | 0.5 to 1 | Cc1cc(F)ccc1C1NC(=O)c2cccc(NC(=O)c3cc(F)cc(C(F)(F)F)c3)c21 (stereo not drawn) [Compound I-327]
33 | 1 to 10 | O=C(Nc1cc(Br)cc2c1[C@@H](c1cccc(F)c1Cl)NC2=O)c1cc(F)cc(C(F)(F)F)c1 [Compound I-667]
34 | ≤ 0.1 | O=C(Nc1cc(OC2CCC2(F)F)cc2c1C(c1cc(F)ccc1Cl)NC2=O)c1cc(F)cc(C(F)(F)F)c1 (stereo not drawn) [Compound I-1198]
35 | 1 to 10 | O=C1N[C@H](c2cc(F)ccc2Cl)c2c(NC(=O)c3csc4ccccc34)cc(Br)cc21 [Compound I-733]
36 | 10 to 100 | Cc1ccccc1C1c2c(NC(=O)c3csc4ccccc34)cccc2C(=O)N1C (stereo not drawn) [Compound I-82]
37 | ≤ 0.1 | Cc1ccccc1C1NC(=O)c2c(C#N)ccc(NC(=O)c3csc4ccccc34)c21 (stereo not drawn) [Compound I-132, N-(7-Cyano-1-oxo-3-(o-tolyl)isoindolin-4-yl)benzo[b]thiophene-3-carboxamide]
38 | ≤ 0.1 | N#Cc1ncc(-c2cc(NC(=O)c3cc(F)cc(C(F)(F)F)c3)c3c(c2)C(=O)NC3c2cc(F)ccc2Cl)cn1 (stereo not drawn) [Compound I-886]
39 | 1 to 10 | O=C1NC(c2cc(F)ccc2Cl)c2c(NC(=O)N3CCc4c3cccc4C(F)(F)F)cccc21 (stereo not drawn) [Compound I-2498]
40 | 1 to 10 | NS(=O)(=O)Cc1cc(NC(=O)c2cc(F)cc(C(F)(F)F)c2)c2c(c1)C(=O)N[C@@H]2c1cc(F)ccc1Cl [Compound I-1479]
41 | 0.1 to 0.5 | O=C(Nc1cc(OCC2(O)COC2)cc2c1C(c1cc(F)ccc1Cl)NC2=O)c1cc(F)cc(C(F)(F)F)c1 (stereo not drawn) [Compound I-1338]
42 | ≤ 0.1 | CNC(=O)c1cc(NC(=O)c2cc(F)cc(C(F)(F)F)c2)c2c(c1)C(=O)N[C@H]2c1ccccc1C [Compound I-212]
43 | 1 to 10 | Cc1ccccc1C1NC(=O)c2cccc(NC(=O)c3cc(F)cc(OC(F)F)c3)c21 (stereo not drawn) [Compound I-59]

Row | IC50 [µM] | Compound
44 | 10 to 100 | Cn1cc(Br)c(C(=O)Nc2cccc3c2C(c2cc(F)ccc2Cl)NC3=O)n1 (stereo not drawn) [Compound I-582]
45 | 10 to 100 | CC(C1CCN(C(=O)Nc2cccc3c2C(c2cc(F)ccc2Cl)NC3=O)C1)C(F)(F)F (mixture of isomers) [Compound I-2421]
46 | 0.1 to 0.5 | O=C(Nc1cc(-n2ccnc2)cc2c1[C@@H](c1cc(F)ccc1Cl)NC2=O)c1cc(F)cc(C(F)(F)F)c1 (stereo in doubt) [Compound I-1125]
47 | 10 to 100 | O=C(NCc1ccccc1)c1cc(Br)cc2c1C(c1cc(F)ccc1Cl)NC2=O (stereo not drawn) [Compound I-1979]
48 | 0.1 to 0.5 | Cc1ccccc1C1NC(=O)c2c(C(N)=O)ccc(NC(=O)c3cc(F)cc(C(F)(F)F)c3)c21 (stereo not drawn) [Compound I-339]
49 | ≤ 0.1 | CC(=O)COc1cc(NC(=O)c2cc(F)cc(C(F)(F)F)c2)c2c(c1)C(=O)NC2c1cc(F)ccc1Cl (stereo not drawn) [Compound I-708]
50 | 0.1 to 0.5 | C=Cc1ccc(NC(=O)c2nsc3ccccc23)c2c1C(=O)NC2c1ccccc1C (stereo not drawn) [Compound I-205]
51 | 0.5 to 1 | Nc1nc(NC(=O)c2cc(F)cc(C(F)(F)F)c2)c2c(n1)C(=O)NC2c1ccccc1Cl (stereo not drawn) [Compound I-184]
52 | 10 to 100 | Cc1ccccc1C1NC(=O)c2cccc(NC(=O)N3CCCCC3)c21 (stereo not drawn) [Compound I-433]
53 | 10 to 100 | Cc1cc(=O)[nH]cc1C(=O)Nc1cc(Br)cc2c1C(c1cc(F)ccc1Cl)NC2=O (stereo not drawn) [Compound I-1240]
54 | ≤ 0.1 | Cn1cncc1C#Cc1cc(NC(=O)c2cc(F)cc(C(F)(F)F)c2)c2c(c1)C(=O)NC2c1cc(F)ccc1Cl (stereo not drawn) [Compound I-1247]
55 | 1 to 10 | CC[C@H](CC(=O)Nc1cccc2c1[C@H](c1cc(F)ccc1Cl)NC2=O)[C@@H](C)C(F)(F)F (single isomer, unassigned) [Compound I-2335]
56 | ≤ 0.1 | O=C(Nc1cc(Br)cc2c1C(c1cc(F)ccc1Cl)NC2=O)c1cc(F)cc(Cl)c1 (stereo not drawn) [Compound I-216]
57 | 0.1 to 0.5 | Cc1ccc(C(=O)Nc2cc(Br)cc3c2C(c2cc(F)ccc2Cl)NC3=O)cc1C(F)(F)F (stereo not drawn) [Compound I-875]
58 | 10 to 100 | COc1ccc(C(=O)Nc2cc(Br)cc3c2C(c2cc(F)ccc2Cl)NC3=O)cc1 (stereo not drawn) [Compound I-465]
59 | 1 to 10 | Cc1ccccc1C1NC(=O)c2cccc(NC(=O)c3cc(F)cc(C(F)F)c3)c21 (stereo not drawn) [Compound I-112]
60 | 1 to 10 | O=C(Nc1cc(-c2cn3ncnc3cn2)cc2c1C(c1cc(F)ccc1Cl)NC2=O)c1cc(F)cc(Cl)c1 (stereo not drawn) [Compound I-2267]
